Measurements from article PMC5814186, “Identification and characterization of novel enhanced cell penetrating peptides for anti-cancer cargo delivery” (Oncotarget, 2017).
No end group written: not given here.

Key:
[1] = Stability to protease degradation in human serum; details: 37°C, different periods of time up to 24 h, triplicate; for stability in human serum (percentage of intact peptide), shuttles associated to the cargo PP2A/SET, compared to the shuttle without cargo: MS (MALDI-TOF)
Description: We further analyzed the stability to proteases degradation of the shuttles in human serum upon incubation at 37°C for different periods of time. All the shuttles were incubated with human serum and the resistance to proteases degradation analyzed by HPLC-MS.
Figure 7 Stability of the new generated shuttles in human serum (A) The shuttles were incubated at 37°C in human serum for different periods of time and their integrity (percentage of intact peptide) was analyzed by mass spectrometry (MS). Every measurement was performed in triplicate. Standard deviation is shown. (B) The shuttles Tat, Penetatin and R8 were incubated as above and the integrity was analyzed by MS. Every measurement was performed in triplicate.
For this, the new generated bi-functional peptides (shuttles associated to the cargo PP2A/SET) were incubated with human serum for different periods of time.
Figure 9 Stability in human serum of the shuttles associated to a cargo (PP2A/SET binding site) The shuttles associated to the cargo PP2A/SET were incubated at 37°C in human serum for different periods of time and their integrity (percentage of intact peptide) was analyzed by mass spectrometry (MS). Measurements were performed in triplicate and standard deviation is shown.
Peptides were incubated at 37°C in 250 ml of human serum for different periods of time. Samples were collected and peptides degradation stopped by freezing. Peptides were extracted from samples using the Proteo Miner Protein Enrichment System (Bio-Rad). Peptide integrity (percentage of intact peptide) was analyzed by mass spectrometry (MS) using MALDI-TOF (Brucker Autoflex II) following their standard protocols. Measurements were performed in triplicate. MS data were analyzed using appropriate software (Clinprot tools, Flex analysis, Brucker).

[2] = cited from earlier work
Description: Electrostatic interactions between the […] in the cell membrane surface are important for the internalization. […] When tryptophan residues were replaced by leucine residues, the peptide was not internalized.

[3] = cited from earlier work; remark: listed apart in the source
Description: We have recently published the use of a CPP named Mut3DPT [15, 16]. […] We decided to generate new CPPs with enhanced penetration and stability, compared to the original Mut3DPT shuttle and keeping equilibrium among penetration, solubility and toxicity.

Compound | stability in human serum (percentage of intact peptide), shuttles associated to the cargo PP2A/SET, compared to the shuttle without cargo [1] | also measured
N=C(N)NCCC[C@H](NC(=O)[C@H](CCCNC(=N)N)NC(=O)[C@H](CCCNC(=N)N)NC(=O)[C@H](CCCNC(=N)N)NC(=O)[C@H](CCCNC(=N)N)NC(=O)[C@H](CCCNC(=N)N)NC(=O)[C@H](CCCNC(=N)N)NC(=O)[C@@H](N)CCCNC(=N)N)C(=O)O [R8] |  | stability in human serum (percentage of intact peptide), shuttles without cargo ([1]; MS (MALDI-TOF; text HPLC-MS)): degraded by serum proteases and almost not detected by HPLC-MS upon 24 h of incubation
KKKKKWKKWKKKETVTLLVALKVRYRERIT [Mut7DPT-PP2A/SET] | does not significantly modify the stability | 
KKWKKWKKWKKETVTLLVALKVRYRERIT [Mut5DPT-PP2A/SET] | slightly degradation upon 24 h | 
RRWRRWRRWRRETVTLLVALKVRYRERIT [Mut6DPT-PP2A/SET] | does not significantly modify the stability | 
RRWWRRWRR [RW9, literature CPP RW9 (…)] |  | cellular uptake / internalization [2]: good cellular uptake
VKKKKIKAEIKI [Mut3DPT] |  | resistance to protease degradation [3]: favourable parameters of resistance to protease degradation
